row,SMILES,melting point
1,Cn1c2ccc(Cl)cc2c2c(CC(=O)N3CCCC3)nn(-c3ccccc3)c(=O)c21,261 to 262 °C
2,COc1ccc2c(c1)Sc1c(cc(OC)c(O)c1Br)N2C(=O)OC(C)OC(=O)C(C)(C)C (configuration not stated),85 °C
3,CN1CCCC2(OCCO2)C1Cc1cccc2[nH]ccc12 (configuration not stated),181 to 186 °C
4,CCOc1ccc(S(=O)(=O)N2CCNCC2)cc1-c1nc2c(OC)cccc2c(=O)[nH]1,163 to 165 °C
5,Nc1nc(COc2ccccc2)nc2nccnc12,202 to 204 °C
6,CCCN(CCC)C(=O)Cn1c(-c2ccc(C)s2)nc2cccnc21,125 to 127 °C
7,O=C(O)c1cc(Cl)nn2nnnc12,225 °C
8,O=C(CN1CS(=O)(=O)CC1=O)N1CCN(C(c2ccccc2)c2ccccc2)CC1,209 to 211 °C
9,NC(=O)n1c(S(=O)Cc2ccccn2)nc2ccccc21 (configuration not stated),164 °C
10,CCc1cc(Cl)c(N)c(Cl)c1,47 to 48 °C
11,CSC1(CC(=O)O)CCC1,43 to 46 °C
12,O=[N+]([O-])c1ccc(C#CCCN2CCN(c3ccccn3)CC2)nc1,126 °C
13,CS(=O)(=O)OCc1cc(-c2ccc(OCc3ccccc3)cc2)no1,110 to 112 °C
14,CC(=O)CC(=O)N[C@H](CF)[C@H](O)c1ccc(S(C)(=O)=O)cc1,139 to 141 °C
15,COc1cc(C(=O)NC=NC(=O)ON(c2ccc(C)c(NC(=O)c3ccc(C(=O)c4ccccc4)cc3)c2)C(C)(C)C)cc(OC)c1OC,96 °C
16,CCCCc1cc(C#N)sc1-c1ccc2c(c1)C(C)(C)OC(=O)N2,167 to 168 °C
17,COc1ccc2[nH]cc(-c3cc4c(OC)ncnc4n3S(=O)(=O)c3ccc(C)cc3)c2c1,131 °C
18,COc1ccc(NCc2cc(OC)c(OC)c(OC)c2)cc1,73 to 74 °C
19,CN(C)c1ccc(-c2cc(=S)ss2)nn1,265 °C
20,Clc1cccc(-c2ccc(Cl)nn2)c1,155 to 157 °C
21,Nc1sc2c(c1C(=O)c1ccc(Br)s1)CCC2,154 to 156 °C
22,O=C1[C@@H]2CCCN2C(=O)N1c1cc(Cl)cc(Cl)c1,169 °C
23,CC(=NOCCCC(=O)O)c1ccc(Cl)cc1,106 to 108 °C
24,Cc1oc(-c2ccccc2)nc1/C=C/c1ccc(/C=C/CO)cc1,165 to 166 °C
25,CC(C)c1ccc2nc(C(F)(F)F)c(C(=O)O)c(O)c2c1,206 °C
26,CC(C)(C)OC(=O)N1CCC(CO)(c2ccccc2)CC1,64 °C

row,SMILES,melting point
1,COCC1Cc2c(Cl)c(C)cc([N+](=O)[O-])c2O1 (configuration not stated),117 to 119 °C
2,O=Cc1cn(-c2ccc(C(F)(F)F)cn2)nc1C1CCCCC1,103 to 104 °C
3,COc1ccc2sc3c(c2c1)OC(C)CNC3=O (configuration not stated),185 to 186 °C
4,CC(=O)NC1CCc2cc3c(cc2C1)OCC3O (configuration not stated),254 °C
5,CCCc1nc(S(=O)(=O)Nc2c(F)cccc2F)nn1-c1ccccc1,148 to 150 °C
6,Clc1nc(N2CCCCC2)c2ncnc(Cl)c2n1,114 to 117 °C
7,Cc1ncn(-c2cc(F)ccc2CNC(=O)c2nc3n(c(=O)c2OCc2ccccc2)CCN3c2ccccc2)n1,147 to 148 °C
8,CS(=O)(=O)CCCCCn1c(C(F)(F)F)nc2c(N)nc3ccccc3c21,192 to 195 °C
9,CC(C)Cn1c(=O)n(C)c(=O)c2c(SCCCO)c(Cc3cccc(F)c3)sc21,99 to 100 °C
10,Cc1cccc(Nc2cc(Nc3cccc(C)c3)ncn2)c1,242 to 244 °C
11,CCOC(=O)c1c(CN(CC)CC)nc2ccc(Cl)cc2c1-c1ccccc1,107 to 108 °C
12,COc1cc(N)c([N+](=O)[O-])cc1O,171 °C
13,COc1ccc(C(=O)Nc2ccc(-c3ccc(C)cc3Cl)cc2)cc1CCCN(C)C,63 to 66 °C
14,Ic1cccc2c1CCOC2,54 to 56 °C
15,CC(C)(C)OC(=O)N1CCCN(c2ncnc3ccccc23)CC1,55 to 59 °C
16,CC(C)Oc1cc(CCC(=O)NS(=O)(=O)Cc2ccccc2)n(Cc2ccc(Cl)cc2Cl)n1,183 to 184 °C
17,O=C1NC(=O)C(Cc2ccc(OCCc3cccc4ccccc34)cc2)S1 (configuration not stated),121 to 122 °C
18,CN1C(=O)[C@H](NC(=O)/C=C/c2ccc(F)cc2F)N=C(c2ccccc2)c2ccccc21,121 to 123 °C
19,CN1CCN2c3ccc([N+](=O)[O-])cc3C(c3cccs3)=NCC2C1 (configuration not stated),174 to 175 °C
20,Cc1cc(C)c(Nc2nc(C)ncc2S(=O)(=O)c2ccc(F)cc2)c(C)c1,191 to 193 °C
21,CCNC(=S)NC1CCCc2ccccc21 (configuration not stated),120 to 122 °C
22,O=C(c1ccccc1)c1cc(Cl)cc2c1OCC2C(=O)O (configuration not stated),155 to 157 °C
23,O=C(CC12CC3CC(CC(C3)C1)C2)Nc1ccc2[nH]ccc2c1,184 to 185 °C
24,COc1nc(C)nc(NC(=O)NS(=O)(=O)c2ccc(Cl)nn2)n1,135 °C
25,Cc1cc(NCc2ccccc2)c([N+](=O)[O-])c(=O)[nH]1,246 to 247 °C
26,CC(C)Nc1cccnc1N1CCN(C(=O)c2ccc(C(=O)NCCc3cccs3)cn2)CC1,131 to 134 °C

row,SMILES,melting point
1,CCNC(=O)OCCCCCCCCC1Cc2c(c(OC)c(OC)c(OC)c2OC)C1,85 to 86 °C
2,C[C@@H](Nc1ncnc2[nH]c(-c3ccc(CN4CCN(C(=O)OC(C)(C)C)CC4)cc3)cc12)c1ccccc1,244 to 246 °C
3,Cc1cc(C)n(C)c1C(=O)c1ccc(Cl)cc1,94 to 98 °C
4,CCOc1cc(OCc2ccc(CN(C)C)o2)cc2c1C(=O)N(COC(=O)c1c(Cl)cccc1Cl)S2(=O)=O,157 to 158 °C
5,CCCCOc1cc(/C=C/C(=O)NS(=O)(=O)CCC(C)C)n(Cc2ccc(C(F)(F)F)cc2Cl)n1,89.5 to 90.5 °C
6,O=C(O)CN1C(=O)C(=Cc2ccc3ccccc3c2)SC1=S,257 to 264 °C
7,CSc1c(C#N)nn(-c2c(Cl)cc(C(F)(F)F)cc2Br)c1N,178 to 180 °C
8,Cc1ccc(C=CCN2CCc3nc(N)sc3CC2)cn1,180 to 184 °C
9,CCOc1c(OC)c(OC)cc(C(=O)OC)c1-c1c(C(=O)OC)cc(OC)c2c1OCO2,93 to 94 °C
10,COc1cc2c(cc1OC)N(C(C)=O)CC(N(C)C)C2 (configuration not stated),145 to 147 °C
11,Cc1cc(NCCOC(=O)c2ccccc2)c2[nH]ncc2n1,136 to 138 °C
12,NC(=O)c1ncc(Cl)cc1N,152 to 156 °C
13,CN(C)C=C(C#N)C(=O)Nc1cc(F)ccc1F,175 to 176 °C
14,CC(=O)N1CC(C)(C)c2cc(OC(C)C)ccc21,86 to 87 °C
15,COc1ccccc1C1(O[Si](C)(C)C)C(=O)Nc2cc(C)c(Cl)cc21 (configuration not stated),227 °C
16,CC=CC(=O)N(CCCCC(=O)O)C(c1ccccc1)c1ccccc1,88 to 89 °C
17,CC(CCC(O)CO)=Nc1ncnc2c1ncn2C1OC(CO)C(O)C1O (configuration not stated),102 to 104 °C
18,N#Cc1ccc(-c2cc(-c3cc(Br)ccc3Cl)no2)cc1,198 to 199 °C
19,Cc1ccc(S(=O)(=O)N2[C@@H](c3ncon3)CC[C@H]2c2ccc(F)cc2)cc1 (racemic),165 °C
20,CS(=O)(=O)c1c(Cl)nc(N)nc1Cl,275 °C
21,CC1=C(Cc2ncc[nH]2)CCc2ccccc21,209 to 211 °C
22,CNn1cc(C(=O)O)c(=O)c2cc(F)c(Cl)cc21,275 to 279 °C
23,COc1cc(C2C3=C(COC3=O)Nc3ccc4ncsc4c32)ccc1O (configuration not stated),296 to 297 °C
24,CCOC(=O)CN1C(=O)c2cccc3c(Br)ccc1c23,128 to 130 °C
25,N#Cc1ccc(Oc2ccc(N)c(CN)c2)cc1,80 to 82 °C
26,CCn1c(=O)ccc2cnc(Nc3ccc(N(C)C)cc3)nc21,189 to 191 °C

row,SMILES,melting point
1,COc1ccc2c(=O)c(C=O)coc2c1,188 to 190 °C
2,CCNC(=O)c1ccccc1[Si](C)(C)C,64 to 66 °C
3,CSC(C)=NOC(=O)NCSN(P1OCC(C)(C)CO1)C(C)(C)C,167 to 168 °C
4,COC(=O)Nc1nc2cc(F)c(OC(C)c3c(Cl)ccc(F)c3Cl)cc2[nH]1 (configuration not stated),245 to 250 °C
5,Cc1cc(NC(=O)C=Cc2ccccc2)c(NC(=O)C=Cc2ccccc2)cc1C,244 °C
6,CCn1nc2c(N)nc3cc(OC)ccc3c2c1CCc1ccccc1,162 to 163 °C
7,CSc1cnc(OCCOc2ncnc(NS(=O)(=O)c3ccc(C(C)(C)C)cc3)c2-c2ccc(C(=O)O)cc2)nc1,226 to 227 °C
8,O=c1c(Cl)nsnc1Sc1ccccc1,99.5 to 102 °C
9,CN(C)S(=O)(=O)CC(CS(=O)(=O)c1ccc(Oc2ccc(OC(F)(F)F)cc2)cc1)N(O)C=O (configuration not stated),124 to 126 °C
10,COc1ccc(-c2oncc2CCC(=O)O)cc1,101 to 102 °C
11,CN(c1cccc(C(F)(F)F)c1)c1cc(Oc2cccc(C(F)(F)F)c2)ncn1,118 to 119 °C
12,CCc1nc2c(cnn2CC)c(NC2CCOCC2)c1CNC(=O)c1cc(C)cc(C(=O)NCc2ccc(OC)c(-c3cccc(CN4CCNC(C)C4)c3)c2)c1 (configuration not stated),121 to 123 °C
13,CCOC(=O)C(=CNC(C)(C)C)C(=O)c1cc(F)c(F)c(F)c1F,112 °C
14,Cn1ncc(/C=C/C(=O)Nc2ccc(Cc3nc4ccccc4o3)cc2)c1-c1ccc(F)cc1,195 to 196 °C
15,COC(=O)c1nc(-c2ccc(CO)cc2)cc(N)c1Cl,138 to 139 °C
16,COC12CC(C)(C)C(OC(C)=O)C(C=C1C)O2 (configuration not stated),54 to 55 °C
17,O=C1c2ccccc2C(=S)N1C1CC=CCC1 (configuration not stated),93 °C
18,CS(=O)(=O)c1ccc(C2=C(c3ccccc3)C(=O)C2(Cl)Cl)cc1,124 to 125 °C
19,O=C(c1ccccc1)c1cc(O)c(O)c([N+](=O)[O-])c1,132 °C
20,CN1CCN(Cc2c(-c3ccc4sc(=O)n(C)c4c3)nc3ccccn23)CC1,191 to 193 °C
21,"COc1ccc(CC2c3cc(O)c(OC)cc3CCN2CC2CC2)cc1O (single isomer, unassigned; (+))",70 to 81 °C
22,O=C(CCCCCN1CCN(c2cccc3c2CCC3)CC1)N1Cc2ccccc2C1,112 °C
23,CC(=O)Nc1ccc(C(=O)NCCN2[C@H](C)Cc3ccsc3[C@@H]2C)cc1 (relative stereo),161 to 162 °C
24,O=C(CCCCCl)c1ccc2c(c1)Cc1cc(C(=O)CCCCCl)ccc1S2,85 to 86.5 °C

# Source: a melting point compilation (Tetko et al.; mined from patent text by program, amines drawn as free bases though some values may be those of a salt)
